What was measured:
Type in all cases: in vivo
[1] = system: blackgrass (Alopecurus myosuroides); assay: Test C greenhouse herbicide test, pre- and postemergence
Outline: (§1)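 Seeds sown in loam–sand blend treated preemergence; plants in peat-based medium sprayed postemergence at 2–18 cm (1- to 4-leaf stage); chemicals in non-phytotoxic solvent with surfactant. Greenhouse 13–15 d, then visual rating versus controls on 0–100 scale (0 no effect, 100 complete control).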

corn (Zea mays) = assay: as above
Outline: as §1

[2] = system: crabgrass, large (large crabgrass, Digitaria sanguinalis); assay: as above
Outline: as §1

[3] = system: foxtail, giant (giant foxtail, Setaria faberii); assay: as above
Outline: as §1

[4] = system: johnsongrass (Sorghum halepense); assay: as above
Outline: as §1

[5] = system: lambsquarters (Chenopodium album); assay: as above
Outline: as §1

[6] = system: morningglory (Ipomoea coccinea); assay: as above
Outline: as §1

[7] = system: nutsedge, yellow (yellow nutsedge, Cyperus esculentus); assay: as above
Outline: as §1

[8] = system: oilseed rape (Brassica napus); assay: as above
Outline: as §1

[9] = system: pigweed (Amaranthus retroflexus); assay: as above
Outline: as §1

[10] = system: ragweed (common ragweed, Ambrosia elatior); assay: as above
Outline: as §1

[11] = system: ryegrass, Italian (Italian ryegrass, Lolium multiflorum); assay: as above
Outline: as §1

soybean (Glycine max) = assay: as above
Outline: as §1

[12] = system: waterhemp (common waterhemp, Amaranthus rudis); assay: as above
Outline: as §1

[13] = system: wheat (winter wheat, Triticum aestivum); assay: as above
Outline: as §1

kochia (Kochia scoparia) = assay: Test C greenhouse herbicide test, postemergence
Source text: At the same time, plants selected from these crop and weed species and also chickweed (common chickweed, Stellaria media), kochia (Kochia scoparia), and oat, wild (wild oat, Avena fatua), were planted in pots containing Redi-Earth® planting medium (Scotts Company, 14111 Scottslawn Road, Marysville, Ohio 43041) comprising spaghnum peat moss, vermiculite, wetting agent and starter nutrients and treated with postemergence applications of test chemicals formulated in the same manner. Plants ranged in height from 2 to 18 cm (1- to 4-leaf stage) for postemergence treatments. Treated plants and controls were maintained in a greenhouse for 13 to 15 d, after which time all species were compared to controls and visually evaluated. Plant response ratings, summarized in Table C, are based on a scale of 0 to 100 where 0 is no effect and 100 is complete control. A dash (-) response means no test result.

[14] = Postemergence, 31 g ai/ha, 0 to 100 scale (0 no effect, 100 complete control)
[15] = Postemergence, 125 g ai/ha, scale 0 to 100, 0 is no effect, 100 is complete control
[16] = Postemergence, 250 g ai/ha, scale 0 to 100, 0 no effect, 100 complete control, 13 to 15 d
[17] = Preemergence, 31 g ai/ha, scale 0 to 100, 0 is no effect, 100 is complete control
[18] = Preemergence, 62 g ai/ha, scale 0 to 100, 0 is no effect, 100 is complete control
[19] = Preemergence, 125 g ai/ha, scale 0 to 100, 0 is no effect, 100 is complete control
[20] = Preemergence, 250 g ai/ha, scale 0 to 100 (0 no effect, 100 complete control)
[21] = postemergence, 62 g ai/ha, scale 0 to 100, 0 no effect, 100 complete control

CCOC(=O)Oc1c(C)nn(C)c(=O)c1-c1c(C)ccc2ccccc12 [Compound 73]
Blackgrass plant response rating [1, 14]: 40
Plant response rating, Blackgrass [1, 15]: 90
Plant response rating, Blackgrass [1, 16]: 90
Plant response rating, Blackgrass [1, 17]: 50
Plant response rating, Blackgrass [1, 18]: 80
Plant response rating, Blackgrass [1, 19]: 85
Blackgrass plant response rating [1, 20]: 90
Blackgrass plant response rating [1, 21]: 85
Corn plant response rating (corn (Zea mays); [14]): 5
Plant response rating, Corn (corn (Zea mays); [15]): 20
Plant response rating, Corn (corn (Zea mays); [16]): 60
Plant response rating, Corn (corn (Zea mays); [17]): 0
Plant response rating, Corn (corn (Zea mays); [18]): 0
Plant response rating, Corn (corn (Zea mays); [19]): 5
Corn plant response rating (corn (Zea mays); [20]): 25
Corn plant response rating (corn (Zea mays); [21]): 20
Crabgrass, Large plant response rating [2, 14]: 30
Plant response rating, Crabgrass, Large [2, 15]: 60
Plant response rating, Crabgrass, Large [2, 16]: 75
Plant response rating, Crabgrass, Large [2, 17]: 0
Plant response rating, Crabgrass, Large [2, 18]: 30
Plant response rating, Crabgrass, Large [2, 19]: 75
Crabgrass, Large plant response rating [2, 20]: 75
Crabgrass, Large plant response rating [2, 21]: 35
Foxtail, Giant plant response rating [3, 14]: 40
Plant response rating, Foxtail, Giant [3, 15]: 75
Plant response rating, Foxtail, Giant [3, 16]: 85
Plant response rating, Foxtail, Giant [3, 17]: 55
Plant response rating, Foxtail, Giant [3, 18]: 70
Plant response rating, Foxtail, Giant [3, 19]: 85
Foxtail, Giant plant response rating [3, 20]: 95
Foxtail, Giant plant response rating [3, 21]: 65
Johnsongrass plant response rating [4, 14]: 5
Plant response rating, Johnsongrass [4, 15]: 40
Plant response rating, Johnsongrass [4, 16]: 50
Plant response rating, Johnsongrass [4, 17]: 0
Plant response rating, Johnsongrass [4, 18]: 10
Plant response rating, Johnsongrass [4, 19]: 35
Johnsongrass plant response rating [4, 20]: 55
Johnsongrass plant response rating [4, 21]: 5
Lambsquarters plant response rating [5, 14]: 90
Plant response rating, Lambsquarters [5, 15]: 95
Plant response rating, Lambsquarters [5, 16]: 98
Plant response rating, Lambsquarters [5, 17]: 75
Plant response rating, Lambsquarters [5, 18]: 70
Plant response rating, Lambsquarters [5, 19]: 80
Lambsquarters plant response rating [5, 20]: 90
Lambsquarters plant response rating [5, 21]: 95
Morningglory plant response rating [6, 14]: 75
Plant response rating, Morningglory [6, 15]: 95
Plant response rating, Morningglory [6, 16]: 95
Plant response rating, Morningglory [6, 17]: 85
Plant response rating, Morningglory [6, 18]: 90
Plant response rating, Morningglory [6, 19]: 90
Morningglory plant response rating [6, 20]: 95
Morningglory plant response rating [6, 21]: 90
Nutsedge, Yellow plant response rating [7, 14]: 80
Plant response rating, Nutsedge, Yellow [7, 15]: 80
Plant response rating, Nutsedge, Yellow [7, 16]: 90
Plant response rating, Nutsedge, Yellow [7, 17]: 0
Plant response rating, Nutsedge, Yellow [7, 18]: 35
Plant response rating, Nutsedge, Yellow [7, 19]: 50
Nutsedge, Yellow plant response rating [7, 20]: 95
Nutsedge, Yellow plant response rating [7, 21]: 80
Oilseed Rape plant response rating [8, 14]: 10
Plant response rating, Oilseed Rape [8, 15]: 70
Plant response rating, Oilseed Rape [8, 16]: 85
Plant response rating, Oilseed Rape [8, 17]: 90
Plant response rating, Oilseed Rape [8, 18]: 85
Plant response rating, Oilseed Rape [8, 19]: 90
Oilseed Rape plant response rating [8, 20]: 85
Oilseed Rape plant response rating [8, 21]: 70
Pigweed plant response rating [9, 14]: 80
Plant response rating, Pigweed [9, 15]: 95
Plant response rating, Pigweed [9, 16]: 98
Plant response rating, Pigweed [9, 17]: 95
Plant response rating, Pigweed [9, 18]: 100
Plant response rating, Pigweed [9, 19]: 100
Pigweed plant response rating [9, 20]: 98
Pigweed plant response rating [9, 21]: 85
Ragweed plant response rating [10, 14]: 85
Plant response rating, Ragweed [10, 15]: 90
Plant response rating, Ragweed [10, 16]: 90
Plant response rating, Ragweed [10, 17]: 85
Plant response rating, Ragweed [10, 18]: 95
Plant response rating, Ragweed [10, 19]: 95
Ragweed plant response rating [10, 20]: 98
Ragweed plant response rating [10, 21]: 90
Ryegrass, Italian plant response rating [11, 14]: 85
Plant response rating, Ryegrass, Italian [11, 15]: 90
Plant response rating, Ryegrass, Italian [11, 16]: 90
Plant response rating, Ryegrass, Italian [11, 17]: 75
Plant response rating, Ryegrass, Italian [11, 18]: 90
Plant response rating, Ryegrass, Italian [11, 19]: 90
Ryegrass, Italian plant response rating [11, 20]: 90
Ryegrass, Italian plant response rating [11, 21]: 90
Soybean plant response rating (soybean (Glycine max); [14]): 0
Plant response rating, Soybean (soybean (Glycine max); [15]): 25
Plant response rating, Soybean (soybean (Glycine max); [16]): 45
Plant response rating, Soybean (soybean (Glycine max); [17]): 0
Plant response rating, Soybean (soybean (Glycine max); [18]): 0
Plant response rating, Soybean (soybean (Glycine max); [19]): 0
Soybean plant response rating (soybean (Glycine max); [20]): 0
Soybean plant response rating (soybean (Glycine max); [21]): 15
Waterhemp plant response rating [12, 14]: 75
Plant response rating, Waterhemp [12, 15]: 85
Plant response rating, Waterhemp [12, 16]: 100
Plant response rating, Waterhemp [12, 17]: 85
Plant response rating, Waterhemp [12, 18]: 90
Plant response rating, Waterhemp [12, 19]: 90
Waterhemp plant response rating [12, 20]: 95
Waterhemp plant response rating [12, 21]: 75
Wheat plant response rating [13, 14]: 10
Plant response rating, Wheat [13, 15]: 35
Plant response rating, Wheat [13, 16]: 40
Plant response rating, Wheat [13, 17]: 0
Plant response rating, Wheat [13, 18]: 20
Plant response rating, Wheat [13, 19]: 35
Wheat plant response rating [13, 20]: 60
Wheat plant response rating [13, 21]: 30
Kochia plant response rating (kochia (Kochia scoparia); [14]): 90
Plant response rating, Kochia (kochia (Kochia scoparia); [15]): 90
Plant response rating, Kochia (kochia (Kochia scoparia); [16]): 100
Kochia plant response rating (kochia (Kochia scoparia); [21]): 90

From patent US10597388B2, “Pyridazinone herbicides” (FMC CORPORATION, priority 2014, dated 2020)
